Laboratory results published in article PMC8998978, “Toward a Treatment of Cancer: Design and In Vitro/In Vivo Evaluation of Uncharged Pyrazoline Derivatives as a Series of Novel SHP2 Inhibitors” (International Journal of Molecular Sciences, 2022).

What was measured:
K562 cells = assay: Cell viability assay (MTT); assay type: cell-based; conditions: Homo sapiens, K562, 72 h
From the text: (§1) Human colon cancer cell line HCT116, hepatoma cell lines HepG2 and BEL-7402, lung adenocarcinoma cell lines NCI-H1975 and 95-D, pancreatic cancer cell line Panc-1, breast cancer cell line MDA-MB-231, NSCLC cell line NCI-H1299, ovarian cancer cell line SK-OV-3, leukemia cell line K562, glioma cell line U87, colon epithelial cell line NCM460 and umbilical vein endothelial cell line HUVEC were purchased from the Institute of Biochemistry and Cell Biology, Chinese Academy of Sciences (Shanghai, China). HCT116 cell line was cultured in McCoy’s 5A medium (Hyclone, Logan, UT, USA). HepG2, 95-D, Panc-1, MDA-MB-231, BEL-7402, SK-OV-3, U87 and NCM460 cell lines were cultured in DMEM-High glucose medium (Hyclone, Logan, UT, USA). NCI-H1975, NCI-H1299 and HUVEC cell lines were cultured in RPMI 1640 medium (Hyclone, Logan, UT, USA). K562 cell line was cultured in IMDM medium (Hyclone, Logan, UT, USA). […]
(§2) The inhibition rate of cell viability was detected by 3-(4,5-dimethyl-2-thiazolyl)-2,5-diphenyl-2-H-tetrazolium bromide (MTT, Solarbio, Beijing, China) or Sulforhodamine B (SRB, Sigma-Aldrich, St. Louis, MO, USA) assay. […] The absorbance at 570 nm was measured in a multimode reader (Berthold Technologies, Germany). […] Finally, Tris–HCl solution was added, and the absorbance at 515 nm was detected in a multimode reader (Berthold Technologies, Germany).

HUVEC cells = assay: Cell viability assay (SRB), normal cells; assay type: cell-based; conditions: Homo sapiens, 72 h
From the text: as §1, §2

NCM460 cells = assay: Cell viability assay (SRB), normal cells; assay type: cell-based; conditions: Homo sapiens, 72 h
From the text: as §1, §2

human cancer cells = assay: Cell viability assay, panel of cancer cells; assay type: cell-based; conditions: 11 cancer cell lines, 72 h, read-out: IC50 values against cancer cells (range over the panel)
From the text: as §1, §2

[1] = tested on: RAS/MAPK signaling pathway in HCT116 cells; assay: RAS activation assay and p-Erk Western blotting; assay type: cell-based, human; conditions: HCT116, 4o 2.5, 5 and 10 μM, 12 h, dose-dependent, versus DMSO
Experimental: HCT116 cells were harvested, lysed on ice in RIPA buffer (Beyotime Institute of Biotechnology, Shanghai, China) and boiled. Protein concentration was measured by BCA protein assay kit (Beyotime Institute of Biotechnology, Shanghai, China). The protein samples were separated by SDS-PAGE and transferred to the membrane (Pall, New York, NY, USA). Afterwards, the membrane was immunoblotted with the corresponding primary antibody (C-parp (#5625), C-cas9 (#9505), C-cas3 (#9661), Bcl-2 (#4223), Bax (#5023), SHP2 (#3752), P-Erk1/2 (#9101) and Erk1/2 (#9102), 1:1000, Cell Signaling Technology, Danvers, MA, USA; Tubulin (#ET1602-4), 1:5000, HUABIO, Hangzhou, China) and the appropriate HRP-conjugated secondary antibody, and determined with ECL detection reagent (Thermo Scientific, Waltham, MA, USA).
Active RAS (RAS-GTP) was pulled down from HCT116 cells. Cells were seeded in 6-well plates and treated with different concentrations of 4o for 12 h after overnight serum starvation. Cells were stimulated with 100 ng/mL hEGF for 5 min before cell lysis. On the basis of protein extraction and quantification, RAS activation assay biochem kit (Cytoskeleton Inc., Denver, CO, USA) was used for detection according to the requirements of manufacturers.

Subacute toxicity assay = assay type: in vivo
Experimental: In acute toxicity assay, 18 female Kunming mice (Jinan Pengyue Experimental Animal Breeding Co., Ltd., Jinan, China), 18–22 g of weight, were used. The mice were randomly divided into three groups (n = 6), and treated with vehicle (0.5% CMC-Na solution) or 4o (300, 2000 mg/kg) by gavage once. The body weight, toxicity effect, general behavior and mortality of mice were monitored within 14 days after 4o treatment. In subacute toxicity assay, 10 male and 10 female Kunming mice (Jinan Pengyue Experimental Animal Breeding Co., Ltd., Jinan, China), 18–22 g of weight, were used. The mice were randomly divided into two groups with 5 males and 5 females, and were orally treated with vehicle (0.5% CMC-Na solution) or 4o (1000 mg/kg) once a day for 28 days. […]. After 28 days of treatment, the mice were anaesthetized with isoflurane and killed by decapitation. The heart, liver, spleen and kidney tissues were collected, and histologically analyzed by H&E staining.

CCOc1ccc(Oc2ccc(C3=NN(C4=NC(=O)CS4)C(c4cc(O)c(O)c(Br)c4Br)C3)cc2)cc1 (stereo not drawn) [Compound 4o, 2-(5-(2,3-dibromo-4,5-dihydroxyphenyl)-3-(4-(4-ethoxyphenoxy)phenyl)-4,5-dihydro-1H-pyrazol-1-yl)thiazol-4(5H)-one]
IC50 (K562 cells): 9.6 ± 0.68 µM | IC50 (HUVEC cells): 28.3 ± 1.63 µM | IC50 (NCM460 cells): 27.1 ± 0.66 µM | IC50 (human cancer cells): 2.64 to 10.2 µM | Levels of RAS-GTP and p-Erk [1]: decreased | Body Weight (g) Day 0 (Subacute toxicity assay; 1000 mg/kg orally once a day): 19.08 ± 0.95 g | Body Weight (g) Day 7 (Subacute toxicity assay; 1000 mg/kg orally once a day): 27.52 ± 1.77 g | Body Weight (g) Day 14 (Subacute toxicity assay; 1000 mg/kg orally once a day): 33.41 ± 3.49 g | Body Weight (g) Day 21 (Subacute toxicity assay; 1000 mg/kg orally once a day): 35.49 ± 4.52 g | Body Weight (g) Day 28 (Subacute toxicity assay; 1000 mg/kg orally once a day): 36.63 ± 4.84 g | Mortality (Subacute toxicity assay; 1000 mg/kg orally once a day, 28 days): 0/10 | H&E staining of heart, liver, spleen and kidney (Subacute toxicity assay; 1000 mg/kg orally, 28 days): no significant change in the cell morphology
